Assay results from US9382295B2, “Cyclic depsipeptide compounds and their uses” (Cypralis Limited, priority 2012, dated 2016).
pKi: −log10 of the molar value. Values after ≈ are worked out from the molar mass of the structure shown. Read-outs that look alike come from different tables or passages of the source. Numbered stars: 1 amine (or outer) side, 2 acyl side, 3 side chain; on linkers, the order of the positions; unused ones are H or OH. Square brackets hold non-standard residues; d marks the D form. Peptide text beside a SMILES is read from it. X28 = C[C@H](CCN1CCC(c2ccccc2)CC1)[C@@H](O)[C@H](C(=O)[*:2])N(C)[*:1]; X22 = C[C@H](Cc1nc2ccccc2[nH]1)[C@@H](O)[C@H](C(=O)[*:2])N(C)[*:1]; X32 = CC(=O)N(CC[C@@H](C)[C@@H](O)[C@H](C(=O)[*:2])N(C)[*:1])C(C)C; X29 = C[C@H](CCN(C)Cc1ccccn1)[C@@H](O)[C@H](C(=O)[*:2])N(C)[*:1]; X9 = C[C@H](CC(=O)NCc1ccccc1)[C@@H](O)[C@H](C(=O)[*:2])N(C)[*:1]; X15 = C[C@H](CCN1CCCCC1CO)[C@@H](O)[C@H](C(=O)[*:2])N(C)[*:1]; X18 = C[C@H](CCNCc1ccccc1)[C@@H](O)[C@H](C(=O)[*:2])N(C)[*:1]; X25 = CC(C)NCC[C@@H](C)[C@@H](O)[C@H](C(=O)[*:2])N(C)[*:1]; d(aThr) = C[C@@H](O)[C@@H](N)C(=O)O; NMeL = CN[C@@H](CC(C)C)C(=O)O; dNMeL = CN[C@H](CC(C)C)C(=O)O; dNMeV = CN[C@@H](C(=O)O)C(C)C; Hiv = CC(C)[C@H](O)C(=O)O; Sar = CNCC(=O)O

Assays:
cyclophilin A (Cyp A) = target: T1, cyclophilin A (Cyp A) (Homo sapiens, UniProt P62937); test: Protease-free PPIase assay, cyclophilin A; assay type: biochemical
T1 construct: purchased Sigma C3805
T1 sequence (P62937 whole entry): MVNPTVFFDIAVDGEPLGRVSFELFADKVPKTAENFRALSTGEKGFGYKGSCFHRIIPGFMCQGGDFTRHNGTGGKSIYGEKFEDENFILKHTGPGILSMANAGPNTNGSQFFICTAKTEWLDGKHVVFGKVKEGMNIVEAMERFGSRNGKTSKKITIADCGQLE
How it was run: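 Protease-free cis-trans isomerisation: 2 nM recombinant human cyclophilin A with 60 μM succinimide-peptide substrate in 35 mM HEPES pH 7.8 plus DTT, at 10.0 °C, max 0.5% DMSO. Absorbance at 330 nm was fitted to first-order kinetics, background subtracted, and catalytic rates versus inhibitor concentration gave Ki.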

cyclophilin D (Cyp D) = cyclophilin D (Cyp D) (Homo sapiens, UniProt P30405); test: Protease-free PPIase assay, cyclophilin D; assay type: biochemical
cyclophilin D (Cyp D), sequence (P30405 30-207): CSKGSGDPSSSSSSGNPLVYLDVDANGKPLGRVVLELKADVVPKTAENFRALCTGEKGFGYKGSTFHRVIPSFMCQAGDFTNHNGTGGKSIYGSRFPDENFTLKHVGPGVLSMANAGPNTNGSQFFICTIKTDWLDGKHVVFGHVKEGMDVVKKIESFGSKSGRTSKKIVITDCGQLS
How it was run: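 Cis-trans isomerization of a succinimide-peptide substrate (60 µM final) by 2 nM enzyme was followed at 330 nm in 35 mM HEPES pH 7.8 with 50 µM DTT, stirred at 10.0 °C, DMSO ≤0.5%. First-order rate constants minus background were fitted against inhibitor concentration to give Ki.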

[1] = Water solubility assay (pH 7.8 buffer); assay type: physicochemical
How it was run: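 DMSO stocks were diluted into 35 mM HEPES pH 7.8 to final 0–100 μM with 1% DMSO, in triplicate. Plates were shaken 18 h at 25 °C, then precipitation was detected as increased absorbance at 650 nm. Values give the concentration (μM) at which the compound remains in solution.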

[2] = protease-free PPIase assay, class symbols, read-out: CypA Ki
[3] = protease-free PPIase assay, class symbols, read-out: CypD Ki
[4] = 35 mM HEPES buffer, 35 mM HEPES pH 7.8, 1% DMSO, 25° C., 18 h, concentration at which compound remains in solution, read-out: Solubility

SMILES | pKi (cyclophilin A (Cyp A); [2]) | pKi (cyclophilin D (Cyp D); [3]) | solubility at 18 h [1, 4] [µM] | pKi (cyclophilin A (Cyp A)) | pKi (cyclophilin D (Cyp D)) | solubility at 18 h ([1]; pH 7.8) [µM]
CC(C)C[C@@H]1C(=O)N[C@H](CC(C)C)C(=O)N(C)[C@H](C(C)C)C(=O)N(C)[C@H]([C@H](O)[C@H](C)CCN(C)Cc2ccccn2)C(=O)N[C@H]([C@@H](C)O)C(=O)N(C)CC(=O)N(C)[C@@H](CC(C)C)C(=O)N[C@H](CC(C)C)C(=O)N(C)[C@H](CC(C)C)C(=O)N[C@H](C)C(=O)O[C@@H](C(C)C)C(=O)N1C [Example 31, cyclo-[(3R,4R,5S)-4-(hydroxy)-3-methyl-5-(methylamino)-1-N-(methyl-pyridin-2-ylmethyl-amino)-hexanoic acid-Thr-Sar-MeLeu-Leu-MeLeu-Ala-D-Hiv-MeLeu-Leu-MeVal]] (cyclo([Hiv][dNMeL][dL][dNMeV][X29][d(aThr)][Sar][NMeL][dL][dNMeL][dA])) | 7.00 to 7.60 | 7.60 to 9.00 | 50 to 75 (≈ 67.1 to 101 µg/mL) |  |  | 
CC(C)C[C@@H]1C(=O)N[C@H](CC(C)C)C(=O)N(C)[C@H](C(C)C)C(=O)N(C)[C@H]([C@H](O)[C@H](C)Cc2nc3ccccc3[nH]2)C(=O)N[C@H]([C@@H](C)O)C(=O)N(C)CC(=O)N(C)[C@@H](CC(C)C)C(=O)N[C@H](CC(C)C)C(=O)N(C)[C@H](CC(C)C)C(=O)N[C@H](C)C(=O)O[C@@H](C(C)C)C(=O)N1C [Example 33, cyclo-[(2R,3R,4S)-1-(1H-benzoimidazol-2-yl)-2-methyl-4-methylamino-3-hydroxy-pentanoic acid-Thr-Sar-MeLeu-Leu-MeLeu-Ala-D-Hiv-MeLeu-Leu-MeVal]] (cyclo([Hiv][dNMeL][dL][dNMeV][X22][d(aThr)][Sar][NMeL][dL][dNMeL][dA])) |  |  |  | 7.60 to 9.00 | 7.60 to 9.00 | 25 to 50 (≈ 33.1 to 66.2 µg/mL)
CC(C)C[C@@H]1C(=O)N[C@H](CC(C)C)C(=O)N(C)[C@H](C(C)C)C(=O)N(C)[C@H]([C@H](O)[C@H](C)CCN2CCC(c3ccccc3)CC2)C(=O)N[C@H]([C@@H](C)O)C(=O)N(C)CC(=O)N(C)[C@@H](CC(C)C)C(=O)N[C@H](CC(C)C)C(=O)N(C)[C@H](CC(C)C)C(=O)N[C@H](C)C(=O)O[C@@H](C(C)C)C(=O)N1C [Example 34, cyclo-[(3R,4R,5S)-4-(hydroxy)-3-methyl-5-(methylamino)-1-(4-phenyl-1-piperidyl)-hexanoic acid-Thr-Sar-MeLeu-Leu-MeLeu-Ala-D-Hiv-MeLeu-Leu-MeVal]] (cyclo([Hiv][dNMeL][dL][dNMeV][X28][d(aThr)][Sar][NMeL][dL][dNMeL][dA])) | 7.60 to 9.00 | 7.60 to 9.00 | 10 to 25 (≈ 13.8 to 34.5 µg/mL) |  |  | 
CC(C)C[C@@H]1C(=O)N[C@H](CC(C)C)C(=O)N(C)[C@H](C(C)C)C(=O)N(C)[C@H]([C@H](O)[C@H](C)CCNCc2ccccc2)C(=O)N[C@H]([C@@H](C)O)C(=O)N(C)CC(=O)N(C)[C@@H](CC(C)C)C(=O)N[C@H](CC(C)C)C(=O)N(C)[C@H](CC(C)C)C(=O)N[C@H](C)C(=O)O[C@@H](C(C)C)C(=O)N1C [Example 35, cyclo-[(3R,4R,5S)-1-benzylamino-3-methyl-5-methylamino-4-hydroxy-hexanoic acid-Thr-Sar-MeLeu-Leu-MeLeu-Ala-D-Hiv-MeLeu-Leu-MeVal]] (cyclo([Hiv][dNMeL][dL][dNMeV][X18][d(aThr)][Sar][NMeL][dL][dNMeL][dA])) |  |  |  | 7.00 to 7.60 | 7.60 to 9.00 | 25 to 50 (≈ 33.2 to 66.3 µg/mL)
CC(C)C[C@@H]1C(=O)N[C@H](CC(C)C)C(=O)N(C)[C@H](C(C)C)C(=O)N(C)[C@H]([C@H](O)[C@H](C)CC(=O)NCc2ccccc2)C(=O)N[C@H]([C@@H](C)O)C(=O)N(C)CC(=O)N(C)[C@@H](CC(C)C)C(=O)N[C@H](CC(C)C)C(=O)N(C)[C@H](CC(C)C)C(=O)N[C@H](C)C(=O)O[C@@H](C(C)C)C(=O)N1C [Example 36, cyclo-[(3R,4R,5S)-1-benzylcarbamoyl-3-methyl-5-methylamino-4-hydroxy-pentanoic acid-Thr-Sar-MeLeu-Leu-MeLeu-Ala-D-Hiv-MeLeu-Leu-MeVal]] (cyclo([Hiv][dNMeL][dL][dNMeV][X9][d(aThr)][Sar][NMeL][dL][dNMeL][dA])) |  |  |  | 7.60 to 9.00 | 7.60 to 9.00 | 25 to 50 (≈ 33.5 to 67 µg/mL)

More lines, now with the values ahead:

pKi (cyclophilin A (Cyp A); [2]) | pKi (cyclophilin D (Cyp D); [3]) | solubility at 18 h [1, 4] [µM] | pKi (cyclophilin A (Cyp A)) | pKi (cyclophilin D (Cyp D)) | solubility at 18 h ([1]; pH 7.8) [µM] | SMILES
 |  |  | 7.00 to 7.60 | 7.60 to 9.00 | > 100 | CC(C)C[C@@H]1C(=O)N[C@H](CC(C)C)C(=O)N(C)[C@H](C(C)C)C(=O)N(C)[C@H]([C@H](O)[C@H](C)CCNC(C)C)C(=O)N[C@H]([C@@H](C)O)C(=O)N(C)CC(=O)N(C)[C@@H](CC(C)C)C(=O)N[C@H](CC(C)C)C(=O)N(C)[C@H](CC(C)C)C(=O)N[C@H](C)C(=O)O[C@@H](C(C)C)C(=O)N1C [Example 37, cyclo-[(3R,4R,5S)-4-hydroxy-1-isopropylamino-3-methyl-5-methylamino-hexanoic acid-Thr-Sar-MeLeu-Leu-MeLeu-Ala-D-Hiv-MeLeu-Leu-MeVal]] (cyclo([Hiv][dNMeL][dL][dNMeV][X25][d(aThr)][Sar][NMeL][dL][dNMeL][dA]))
 |  |  | 7.00 to 7.60 | 7.60 to 9.00 | 50 to 75 (≈ 66 to 99.1 µg/mL) | CC(=O)N(CC[C@@H](C)[C@@H](O)[C@@H]1C(=O)N[C@H]([C@@H](C)O)C(=O)N(C)CC(=O)N(C)[C@@H](CC(C)C)C(=O)N[C@H](CC(C)C)C(=O)N(C)[C@H](CC(C)C)C(=O)N[C@H](C)C(=O)O[C@@H](C(C)C)C(=O)N(C)[C@H](CC(C)C)C(=O)N[C@H](CC(C)C)C(=O)N(C)[C@H](C(C)C)C(=O)N1C)C(C)C [Example 38, cyclo-[(3R,4R,5S)-1-(acetyl-isopropyl-amino)-4-hydroxy-3-methyl-5-methylamino-hexanoic acid-Thr-Sar-MeLeu-Leu-MeLeu-Ala-D-Hiv-MeLeu-Leu-MeVal]] (cyclo([Hiv][dNMeL][dL][dNMeV][X32][d(aThr)][Sar][NMeL][dL][dNMeL][dA]))
 |  |  | 6.52 to 7.00 | 7.00 to 7.60 | > 100 | CC(C)C[C@@H]1C(=O)N[C@H](CC(C)C)C(=O)N(C)[C@H](C(C)C)C(=O)N(C)[C@H]([C@H](O)[C@H](C)CCN2CCCCC2CO)C(=O)N[C@H]([C@@H](C)O)C(=O)N(C)CC(=O)N(C)[C@@H](CC(C)C)C(=O)N[C@H](CC(C)C)C(=O)N(C)[C@H](CC(C)C)C(=O)N[C@H](C)C(=O)O[C@@H](C(C)C)C(=O)N1C (stereo partly drawn) [Example 39, cyclo-[(2R,3R,4S)-4-hydroxy-1-(2-hydroxymethyl-piperidin-1-yl)-3-methyl-5-methylamino-hexanoic acid-Thr-Sar-MeLeu-Leu-MeLeu-Ala-D-Hiv-MeLeu-Leu-MeVal]] (cyclo([Hiv][dNMeL][dL][dNMeV][X15][d(aThr)][Sar][NMeL][dL][dNMeL][dA]))
